# Columns and labels:
# M. tuberculosis H37Rv = experiment: Resazurin reduction microtiter assay (REMA), growth inhibition and MIC determination; assay type: cell-based; details: Mycobacterium tuberculosis, 168 h, 7 days at 37° C.; for inhibition at 20 µM: at 20 uM compound, read-out: H37Rv inh % at 20 uM; for MIC: two-fold serial dilution from 100 to 0.16 μM, read-out: H37Rv MIC90
# human PLK1 kinase domain = target: T1, human PLK1 kinase domain (Homo sapiens, UniProt P53350); experiment: In vitro PLK1 assay (IMAP fluorescence polarization kinase assay); assay type: biochemical; details: for inhibition at 10 µM: at 10 uM compound; for IC50: 30 nM PLK1 kinase domain, 16 μM ATP (=Kmapp), 90 min at room temperature
# T1 construct: Each reaction consisted of 30 nM enzyme PLK1 kinase domain
# T1 sequence (P53350 53-305 limits assumed): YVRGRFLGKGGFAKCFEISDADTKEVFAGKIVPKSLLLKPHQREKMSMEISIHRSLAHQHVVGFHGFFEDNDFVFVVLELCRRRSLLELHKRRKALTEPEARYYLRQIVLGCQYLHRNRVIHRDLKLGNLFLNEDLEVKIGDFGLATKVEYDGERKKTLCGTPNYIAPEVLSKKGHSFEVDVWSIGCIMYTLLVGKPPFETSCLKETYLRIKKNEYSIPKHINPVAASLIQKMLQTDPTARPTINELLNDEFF
# Description: The activity of the compounds described in the present invention was determined using a commercially available IMAP Screening Express Assay Kit (Molecular devices).
# This method measures the change in the fluorescent polarization of a fluorescently-labeled peptide due to the effect of human PLK1 kinase domain on it. PLK1 kinase assays were performed in low protein binding 384-well plates (Corning 3676). Test compounds were diluted in 100% DMSO to 5 mM stock concentration, the further dilutions were made in H2O or 100% DMSO to desirable concentrations.
# Each reaction consisted of 30 nM enzyme PLK1 kinase domain, 400 nM 5TAMRA-RGSFNDTLDFD-NH2 (Genecust Europe), 16 μM ATP (=Kmapp, Sigma-Aldrich) and kinase buffer: 20 mM HEPES pH 7.5 (Sigma-Aldrich), 1 mM DTT (Sigma-Aldrich), 10 mM MgCl2 (Sigma-Aldrich), 0.01% Triton X-100 (Sigma-Aldrich).
# For each reaction, 4 or 6 μl containing 5TAMRA-RGSFNDTLDFD-NH2, ATP and kinase buffer were combined with 2 μl diluted compound in H2O or 0.04 μl compound in 100% DMSO. The kinase reaction was started by the addition of 2 μl diluted enzyme. The reaction was allowed to run for 90 minutes at room temperature. The reaction was stopped by adding 15 μl IMAP beads (1:1200 beads in progressive (40% buffer A, 60% buffer B) 1× buffer). After an additional 60 minutes, fluorescent polarization (Ex: 550-10 nm, Em: 590-10 nm, Dich: 561 nm) was measured using Analyst GT multimode reader (Molecular Devices).
Structure (SMILES),inhibition at 20 µM (M. tuberculosis H37Rv) [%],inhibition at 10 µM (human PLK1 kinase domain) [%],IC50 (human PLK1 kinase domain) [µM],MIC (M. tuberculosis H37Rv) [µM]
"COc1ccc(COc2ccccc2-c2cc(Nc3ccc(S(=O)(=O)Nc4onc(C)c4C)cc3)ncn2)cc1 [Example 29, N-(3,4-Dimethyl-isoxazol-5-yl)-4-{6-[2-(4-methoxy-benzyloxy)-phenyl]-pyrimidin-4-ylamino}-benzenesulfonamide]",-14.2,36,–,–
"COc1ccccc1-c1cc(Nc2ccc(S(=O)(=O)Nc3onc(C)c3C)cc2)ncn1 [Example 31, N-(3,4-Dimethyl-isoxazol-5-yl)-4-[6-(2-methoxy-phenyl)-pyrimidin-4-ylamino]-benzenesulfonamide]",–,79.8,2.47,–
"Cc1noc(NS(=O)(=O)c2ccc(Nc3cc(-c4ccc(F)cc4OC(C)C)ncn3)cc2)c1C [Example 17, N-(3,4-Dimethyl-isoxazol-5-yl)-4-[6-(4-fluoro-2-isopropoxy-phenyl)-pyrimidin-4-ylamino]-benzenesulfonamide]",-1.4,68.8,0.179,–
"CCOc1ccccc1-c1cc(Nc2ccc(S(=O)(=O)Nc3onc(C)c3C)cc2)ncn1 [Example 8, N-(3,4-Dimethyl-isoxazol-5-yl)-4-[6-(2-ethoxy-phenyl)-pyrimidin-4-ylamino]-benzenesulfonamide]",-48.4,82.4,1.25,–
"COc1cc(F)ccc1-c1cc(Nc2ccc(S(=O)(=O)Nc3onc(C)c3C)cc2)ncn1 [Example 18, N-(3,4-Dimethyl-isoxazol-5-yl)-4-[6-(4-fluoro-2-methoxy-phenyl)-pyrimidin-4-ylamino]-benzenesulfonamide]",-8.6,63.3,0.04,–
"Cc1noc(NS(=O)(=O)c2ccc(Nc3cc(-c4ccccc4C(N)=O)ncn3)cc2)c1C [Example 26, 2-{6-[4-(3,4-Dimethyl-isoxazol-5-ylsulfamoyl)-phenylamino]-pyrimidin-4-yl}-benzamide]",-34.2,0,–,–
"Cc1noc(NS(=O)(=O)c2ccc(Nc3cc(-c4ccccc4F)ncn3)cc2)c1C [Example 40, N-(3,4-Dimethyl-isoxazol-5-yl)-4-[6-(2-fluoro-phenyl)-pyrimidin-4-ylamino]-benzenesulfonamide]",-8.5,88.6,2.43,–
"CC(=O)Nc1ccc(-c2cc(Nc3ccc(S(=O)(=O)Nc4onc(C)c4C)cc3)ncn2)cc1 [Example 27, N-(4-{6-[4-(3,4-Dimethyl-isoxazol-5-ylsulfamoyl)-phenylamino]-pyrimidin-4-yl}-phenyl)-acetamide]",-11.9,68.7,0.372,–
"COc1ccccc1-c1cc(Nc2ccc(S(=O)(=O)Nc3cc(C)on3)cc2)ncn1 [Example 33, 4-[6-(2-Methoxy-phenyl)-pyrimidin-4-ylamino]-N-(5-methyl-isoxazol-3-yl)-benzenesulfonamide]",-30.6,57.8,–,–
"COc1cc(Cl)ccc1-c1cc(Nc2ccc(S(=O)(=O)Nc3onc(C)c3C)cc2)ncn1 [Example 28, 4-[6-(4-Chloro-2-methoxy-phenyl)-pyrimidin-4-ylamino]-N-(3,4-dimethyl-isoxazol-5-yl)-benzenesulfonamide]",0.6,61.9,0.059,–
"Cc1noc(NS(=O)(=O)c2ccc(Nc3cc(-c4cc(Cl)ccc4OC(C)C)ncn3)cc2)c1C [Example 24, 4-[6-(5-Chloro-2-isopropoxy-phenyl)-pyrimidin-4-ylamino]-N-(3,4-dimethyl-isoxazol-5-yl)-benzenesulfonamide]",-20.4,80.7,3.75,–
"Cc1ccc(COCc2cc(C)cc(-c3cc(Nc4ccc(S(=O)(=O)Nc5onc(C)c5C)cc4)ncn3)c2)cc1 [Example 47, N-(3,4-Dimethyl-isoxazol-5-yl)-4-{6-[3-methyl-5-(4-methyl-benzyloxymethyl)-phenyl]-pyrimidin-4-ylamino}-benzenesulfonamide]",–,-4,–,–
"COc1ccc(C(C)C)cc1-c1cc(Nc2ccc(S(=O)(=O)Nc3onc(C)c3C)cc2)ncn1 [Example 5, N-(3,4-Dimethyl-isoxazol-5-yl)-4-[6-(5-isopropyl-2-methoxy-phenyl)-pyrimidin-4-ylamino]-benzenesulfonamide]",99.2,43.2,–,16
"Cc1noc(NS(=O)(=O)c2ccc(Nc3cc(-c4cccc5c4OCO5)ncn3)cc2)c1C [Example 3, 4-(6-Benzo[1,3]dioxol-4-yl-pyrimidin-4-ylamino)-N-(3,4-dimethyl-isoxazol-5-yl)-benzenesulfonamide]",-7.2,48.5,–,–
"Cc1noc(NS(=O)(=O)c2ccc(Nc3cc(-c4ccc(C(F)(F)F)cc4)ncn3)cc2)c1C [Example 25, N-(3,4-Dimethyl-isoxazol-5-yl)-4-[6-(4-trifluoromethyl-phenyl)-pyrimidin-4-ylamino]-benzenesulfonamide]",-9.8,0,–,–
"Cc1noc(NS(=O)(=O)c2ccc(Nc3cc(-c4ccccc4COc4ccc(OC(F)(F)F)cc4)ncn3)cc2)c1C [Example 30, N-(3,4-Dimethyl-isoxazol-5-yl)-4-{6-[2-(4-trifluoromethoxy-phenoxymethyl)-phenyl]-pyrimidin-4-ylamino}-benzenesulfonamide]",–,0,–,–
"COc1ccccc1-c1cc(Nc2ccc(S(=O)(=O)Nc3nnc(C)s3)cc2)ncn1 [Example 32, 4-[6-(2-Methoxy-phenyl)-pyrimidin-4-ylamino]-N-(5-methyl-[1,3,4]thiadiazol-2-yl)-benzenesulfonamide]",100,63.5,0.917,18.5
"Cc1noc(NS(=O)(=O)c2ccc(Nc3cc(-c4cccc(N)c4)ncn3)cc2)c1C [Example 44, 4-[6-(3-Amino-phenyl)-pyrimidin-4-ylamino]-N-(3,4-dimethyl-isoxazol-5-yl)-benzenesulfonamide]",–,68,11.4,–
"Cc1noc(NS(=O)(=O)c2ccc(Nc3cc(-c4ccc(N(C)C)cc4)ncn3)cc2)c1C [Example 48, 4-[6-(4-Dimethylamino-phenyl)-pyrimidin-4-ylamino]-N-(3,4-dimethyl-isoxazol-5-yl)-benzenesulfonamide]",–,87,14.2,–
"Cc1noc(NS(=O)(=O)c2ccc(Nc3cc(-c4ccc(C(N)=O)cc4)ncn3)cc2)c1C [Example 46, 4-{6-[4-(3,4-Dimethyl-isoxazol-5-ylsulfamoyl)-phenylamino]-pyrimidin-4-yl}-benzamide]",–,24,–,–
"COc1ccc(F)c(F)c1-c1cc(Nc2ccc(S(=O)(=O)Nc3onc(C)c3C)cc2)ncn1 [Example 14, 4-[6-(2,3-Difluoro-6-methoxy-phenyl)-pyrimidin-4-ylamino]-N-(3,4-dimethyl-isoxazol-5-yl)-benzenesulfonamide]",–,55.4,–,–
"Cc1noc(NS(=O)(=O)c2ccc(Nc3cc(-c4ccc(N)cc4)ncn3)cc2)c1C [Example 45, 4-[6-(4-Amino-phenyl)-pyrimidin-4-ylamino]-N-(3,4-dimethyl-isoxazol-5-yl)-benzenesulfonamide]",–,88,7.34,–
